ChEMBL document CHEMBL5291721, “A preclinical secondary pharmacology resource illuminates target-adverse drug reaction associations of marketed drugs” (Nat Commun, 2023)

Key:
[1] = biological target: T1, Amine oxidase [flavin-containing] A (Homo sapiens, UniProt P21397); type: functional
T1 sequence (P21397 whole entry): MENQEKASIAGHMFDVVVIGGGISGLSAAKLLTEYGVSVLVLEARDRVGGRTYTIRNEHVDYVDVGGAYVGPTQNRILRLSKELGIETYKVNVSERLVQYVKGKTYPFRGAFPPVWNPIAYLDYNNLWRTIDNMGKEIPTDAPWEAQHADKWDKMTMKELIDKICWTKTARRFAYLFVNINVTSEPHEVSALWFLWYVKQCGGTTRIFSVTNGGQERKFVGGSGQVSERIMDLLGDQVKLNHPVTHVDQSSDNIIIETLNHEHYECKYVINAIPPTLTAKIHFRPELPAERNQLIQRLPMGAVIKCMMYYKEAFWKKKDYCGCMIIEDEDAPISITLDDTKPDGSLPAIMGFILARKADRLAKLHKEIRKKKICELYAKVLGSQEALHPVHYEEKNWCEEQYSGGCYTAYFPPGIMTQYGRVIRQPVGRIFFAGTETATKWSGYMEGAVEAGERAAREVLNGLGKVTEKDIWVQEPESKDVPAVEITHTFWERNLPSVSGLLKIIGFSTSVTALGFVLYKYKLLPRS

[2] = biological target: Sodium-dependent noradrenaline transporter (Homo sapiens, UniProt P23975)
[3] = biological target: T2, Alpha-1A adrenergic receptor (Homo sapiens, UniProt P35348); type: functional, cell-based
T2 sequence (P35348 whole entry): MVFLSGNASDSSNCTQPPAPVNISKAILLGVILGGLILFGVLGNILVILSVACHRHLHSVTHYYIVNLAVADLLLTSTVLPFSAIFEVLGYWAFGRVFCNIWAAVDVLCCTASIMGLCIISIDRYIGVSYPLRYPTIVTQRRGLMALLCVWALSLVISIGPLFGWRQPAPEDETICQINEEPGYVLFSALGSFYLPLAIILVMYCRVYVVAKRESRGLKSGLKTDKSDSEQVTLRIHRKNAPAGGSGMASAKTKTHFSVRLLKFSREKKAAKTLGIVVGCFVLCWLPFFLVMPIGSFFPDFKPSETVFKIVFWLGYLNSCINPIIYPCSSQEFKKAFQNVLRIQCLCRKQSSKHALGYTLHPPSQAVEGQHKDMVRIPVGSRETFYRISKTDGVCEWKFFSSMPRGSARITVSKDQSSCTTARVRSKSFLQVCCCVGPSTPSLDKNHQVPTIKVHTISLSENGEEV

Acetylcholinesterase = Acetylcholinesterase (Homo sapiens, UniProt P22303); type: functional
[4] = biological target: T3, Muscarinic acetylcholine receptor M2 (Homo sapiens, UniProt P08172)
T3 sequence (P08172 whole entry): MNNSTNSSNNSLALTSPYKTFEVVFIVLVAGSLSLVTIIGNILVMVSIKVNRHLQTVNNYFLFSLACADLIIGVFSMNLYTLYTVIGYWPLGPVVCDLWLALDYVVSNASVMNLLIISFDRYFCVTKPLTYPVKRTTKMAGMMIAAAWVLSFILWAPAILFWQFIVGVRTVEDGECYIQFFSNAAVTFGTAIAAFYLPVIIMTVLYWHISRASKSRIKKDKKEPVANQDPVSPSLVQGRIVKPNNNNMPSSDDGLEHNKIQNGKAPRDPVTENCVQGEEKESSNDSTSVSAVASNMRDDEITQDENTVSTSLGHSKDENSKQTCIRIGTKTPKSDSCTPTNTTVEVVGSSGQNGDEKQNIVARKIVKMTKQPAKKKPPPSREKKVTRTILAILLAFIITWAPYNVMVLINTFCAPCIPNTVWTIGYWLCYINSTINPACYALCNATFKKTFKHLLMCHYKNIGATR

Prothrombin = Prothrombin (Homo sapiens, UniProt P00734); type: functional
[5] = biological target: Prostaglandin G/H synthase 1 (Homo sapiens, UniProt P23219); type: functional
[6] = biological target: 3',5'-cyclic-AMP phosphodiesterase 4A (Homo sapiens, UniProt P27815); type: functional
Mu-type opioid receptor = Mu-type opioid receptor (Homo sapiens, UniProt P35372)
[7] = biological target: T4, Muscarinic acetylcholine receptor M1 (Homo sapiens, UniProt P11229); type: functional, cell-based
T4 sequence (P11229 whole entry): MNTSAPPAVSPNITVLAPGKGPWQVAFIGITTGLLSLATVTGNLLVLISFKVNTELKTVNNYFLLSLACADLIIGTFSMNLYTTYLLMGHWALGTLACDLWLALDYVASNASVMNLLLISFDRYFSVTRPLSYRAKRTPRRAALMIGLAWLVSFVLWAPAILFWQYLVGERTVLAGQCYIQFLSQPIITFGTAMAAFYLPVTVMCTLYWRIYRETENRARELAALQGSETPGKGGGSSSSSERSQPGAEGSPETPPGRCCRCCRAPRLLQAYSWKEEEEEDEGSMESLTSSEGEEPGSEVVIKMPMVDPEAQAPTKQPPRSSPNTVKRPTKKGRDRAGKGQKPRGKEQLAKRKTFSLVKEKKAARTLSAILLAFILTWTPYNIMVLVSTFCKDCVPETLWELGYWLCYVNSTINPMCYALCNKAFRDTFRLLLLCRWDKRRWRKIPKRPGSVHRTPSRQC

D(1A) dopamine receptor = D(1A) dopamine receptor (Homo sapiens, UniProt P21728)
Note: assay procedure not described here.

Prostaglandin G/H synthase 1, sequence (P23219 whole entry): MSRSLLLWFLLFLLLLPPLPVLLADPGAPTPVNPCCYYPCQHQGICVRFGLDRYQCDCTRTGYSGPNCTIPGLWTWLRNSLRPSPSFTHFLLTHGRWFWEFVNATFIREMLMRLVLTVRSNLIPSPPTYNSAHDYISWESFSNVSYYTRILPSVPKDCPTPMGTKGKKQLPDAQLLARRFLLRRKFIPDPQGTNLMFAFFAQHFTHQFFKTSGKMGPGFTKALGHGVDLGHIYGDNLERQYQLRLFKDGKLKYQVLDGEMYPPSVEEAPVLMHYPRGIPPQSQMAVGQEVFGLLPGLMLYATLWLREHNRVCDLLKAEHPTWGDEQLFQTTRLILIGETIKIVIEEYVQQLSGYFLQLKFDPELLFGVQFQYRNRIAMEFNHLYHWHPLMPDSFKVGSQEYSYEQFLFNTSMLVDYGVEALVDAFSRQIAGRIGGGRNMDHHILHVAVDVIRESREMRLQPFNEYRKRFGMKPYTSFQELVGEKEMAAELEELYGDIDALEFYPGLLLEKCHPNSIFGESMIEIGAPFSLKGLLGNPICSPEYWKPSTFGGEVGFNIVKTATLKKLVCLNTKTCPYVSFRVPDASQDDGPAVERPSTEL
Mu-type opioid receptor, sequence (P35372 whole entry): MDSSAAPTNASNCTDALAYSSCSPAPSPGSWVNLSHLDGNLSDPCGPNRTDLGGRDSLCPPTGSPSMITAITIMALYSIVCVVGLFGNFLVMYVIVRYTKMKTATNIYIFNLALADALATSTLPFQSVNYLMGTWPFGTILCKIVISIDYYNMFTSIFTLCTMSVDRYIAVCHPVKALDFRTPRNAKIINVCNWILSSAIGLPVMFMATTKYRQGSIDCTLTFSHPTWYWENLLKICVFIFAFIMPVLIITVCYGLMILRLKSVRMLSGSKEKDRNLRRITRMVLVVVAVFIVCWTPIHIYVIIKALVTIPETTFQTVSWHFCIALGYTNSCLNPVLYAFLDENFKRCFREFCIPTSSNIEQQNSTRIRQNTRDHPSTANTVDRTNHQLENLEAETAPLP
Sodium-dependent noradrenaline transporter, sequence (P23975 whole entry): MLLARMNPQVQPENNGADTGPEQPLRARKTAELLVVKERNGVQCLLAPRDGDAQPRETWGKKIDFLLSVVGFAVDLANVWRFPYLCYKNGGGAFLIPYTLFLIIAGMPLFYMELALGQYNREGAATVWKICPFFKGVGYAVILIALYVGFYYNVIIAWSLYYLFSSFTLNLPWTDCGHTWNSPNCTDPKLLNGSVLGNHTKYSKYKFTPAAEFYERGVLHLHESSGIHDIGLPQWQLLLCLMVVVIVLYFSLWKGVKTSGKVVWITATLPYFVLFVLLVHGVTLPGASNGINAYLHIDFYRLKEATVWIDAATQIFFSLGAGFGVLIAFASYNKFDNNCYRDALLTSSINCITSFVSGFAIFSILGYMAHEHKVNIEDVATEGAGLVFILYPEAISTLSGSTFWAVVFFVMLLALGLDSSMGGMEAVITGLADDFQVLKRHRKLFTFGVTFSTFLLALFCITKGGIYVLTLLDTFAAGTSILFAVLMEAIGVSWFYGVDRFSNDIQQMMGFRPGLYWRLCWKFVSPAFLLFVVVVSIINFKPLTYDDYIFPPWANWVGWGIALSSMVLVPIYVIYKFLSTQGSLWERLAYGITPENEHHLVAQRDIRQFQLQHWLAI
Acetylcholinesterase, sequence (P22303 whole entry): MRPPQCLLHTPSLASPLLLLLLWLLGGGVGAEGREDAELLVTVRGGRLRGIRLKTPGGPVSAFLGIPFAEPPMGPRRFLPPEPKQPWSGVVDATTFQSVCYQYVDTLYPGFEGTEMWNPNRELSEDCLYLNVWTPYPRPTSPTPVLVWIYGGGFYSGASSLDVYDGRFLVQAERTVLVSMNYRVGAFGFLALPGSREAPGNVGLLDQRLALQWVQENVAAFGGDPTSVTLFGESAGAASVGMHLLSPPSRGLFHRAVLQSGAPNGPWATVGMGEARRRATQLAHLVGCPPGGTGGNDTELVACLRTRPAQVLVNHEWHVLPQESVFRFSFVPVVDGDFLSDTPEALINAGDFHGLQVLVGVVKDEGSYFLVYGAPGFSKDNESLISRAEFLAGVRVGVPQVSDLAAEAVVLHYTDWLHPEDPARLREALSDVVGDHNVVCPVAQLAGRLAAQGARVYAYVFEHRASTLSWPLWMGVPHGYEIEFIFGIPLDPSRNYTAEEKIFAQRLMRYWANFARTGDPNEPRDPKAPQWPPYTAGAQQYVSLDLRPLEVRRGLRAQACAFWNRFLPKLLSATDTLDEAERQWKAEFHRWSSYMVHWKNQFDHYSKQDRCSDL
3',5'-cyclic-AMP phosphodiesterase 4A, sequence (P27815 whole entry): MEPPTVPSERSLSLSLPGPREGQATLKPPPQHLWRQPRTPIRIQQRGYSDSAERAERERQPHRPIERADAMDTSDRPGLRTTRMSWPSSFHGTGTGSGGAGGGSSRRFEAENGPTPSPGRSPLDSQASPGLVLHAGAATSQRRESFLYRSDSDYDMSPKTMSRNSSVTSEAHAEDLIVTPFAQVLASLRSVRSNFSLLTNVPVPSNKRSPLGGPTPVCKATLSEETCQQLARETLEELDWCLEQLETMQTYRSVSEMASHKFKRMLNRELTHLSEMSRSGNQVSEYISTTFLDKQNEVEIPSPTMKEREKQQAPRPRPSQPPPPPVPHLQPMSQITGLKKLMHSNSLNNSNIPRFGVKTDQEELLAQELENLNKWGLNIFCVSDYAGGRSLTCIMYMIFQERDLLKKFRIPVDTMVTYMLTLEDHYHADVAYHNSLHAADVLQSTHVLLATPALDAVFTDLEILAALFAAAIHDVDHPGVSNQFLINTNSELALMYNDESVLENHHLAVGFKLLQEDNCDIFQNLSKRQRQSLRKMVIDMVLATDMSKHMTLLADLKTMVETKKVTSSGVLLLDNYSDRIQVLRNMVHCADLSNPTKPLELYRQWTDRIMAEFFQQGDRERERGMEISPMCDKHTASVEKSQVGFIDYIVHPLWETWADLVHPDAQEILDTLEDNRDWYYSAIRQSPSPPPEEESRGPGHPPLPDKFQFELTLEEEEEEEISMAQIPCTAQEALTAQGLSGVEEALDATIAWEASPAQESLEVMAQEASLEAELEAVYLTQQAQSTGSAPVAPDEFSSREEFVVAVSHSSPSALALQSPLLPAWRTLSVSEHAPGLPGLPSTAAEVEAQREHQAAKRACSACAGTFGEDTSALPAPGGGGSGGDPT
D(1A) dopamine receptor, sequence (P21728 whole entry): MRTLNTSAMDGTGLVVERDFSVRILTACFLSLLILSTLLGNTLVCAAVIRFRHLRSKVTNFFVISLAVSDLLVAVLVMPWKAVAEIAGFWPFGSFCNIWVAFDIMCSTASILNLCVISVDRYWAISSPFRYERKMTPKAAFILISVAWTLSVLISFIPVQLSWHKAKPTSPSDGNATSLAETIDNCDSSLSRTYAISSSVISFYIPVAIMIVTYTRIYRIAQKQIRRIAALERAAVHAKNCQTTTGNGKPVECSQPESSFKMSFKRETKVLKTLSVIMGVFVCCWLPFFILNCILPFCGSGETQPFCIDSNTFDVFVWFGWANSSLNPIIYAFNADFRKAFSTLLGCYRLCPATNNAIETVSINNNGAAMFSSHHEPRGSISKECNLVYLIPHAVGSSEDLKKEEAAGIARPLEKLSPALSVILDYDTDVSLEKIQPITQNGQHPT

Compound	AC50 [1] [µM]	AC50 [2] [µM]	AC50 [3] [µM]	AC50 (Acetylcholinesterase) [µM]	AC50 [4] [µM]	AC50 (Prothrombin) [µM]	AC50 [5] [µM]	AC50 [6] [µM]	AC50 (Mu-type opioid receptor) [µM]	AC50 [7] [µM]	AC50 (D(1A) dopamine receptor) [µM]
CC(C)[C@@H]1CC[C@@H](C)C[C@H]1O [LEVOMENTHOL]	> 30	> 30	> 30	> 30	> 30	> 30	> 30	> 30	> 30	> 30	> 30
C[C@H]1O[C@@H](O[C@H]2CC[C@@]3(C)[C@H](CC[C@@H]4[C@@H]3C[C@@H](O)[C@]3(C)[C@@H](C5=CC(=O)OC5)CC[C@]43O)C2)C[C@H](O)[C@@H]1O[C@H]1C[C@H](O)[C@H](O[C@H]2C[C@H](O)[C@H](O[C@@H]3O[C@H](CO)[C@@H](O)[C@H](O)[C@H]3O)[C@@H](C)O2)[C@@H](C)O1 [DESLANOSIDE]	> 30	> 30	> 30	> 30	> 30	> 30	> 30	> 30	> 30	> 30	> 30
Cc1ccsc1C(=CCCN1CCC[C@@H](C(=O)O)C1)c1sccc1C [TIAGABINE]	> 30	> 30	> 30	> 30	> 30	> 30	24.4	23.6	> 30	> 30	> 30
O=C(NNCS(=O)(=O)O)c1ccncc1 [METHANIAZIDE]	> 30	> 30	> 30	> 30	> 30	> 30	> 30	> 30	> 30	> 30	> 30
C=N[C@@H](C(=O)N[C@@H]1C(=O)N2[C@@H]1SC(C)(C)[C@@H]2C(=O)O)c1ccccc1 [METAMPICILLIN]	> 30	> 30	> 30	> 30	> 30	> 30	9.26	> 30	> 30	> 30	> 30
Cc1cc(=O)[nH]c(=S)[nH]1 [METHYLTHIOURACIL]	> 30	> 30	> 30	> 30	> 30	> 30	13.1	> 30	> 30	> 30	> 30
CC[C@]12CCCN3CCc4c(n(c5ccccc45)[C@@](O)(C(=O)OC)C1)[C@@H]32 [VINCAMINE]	> 30	> 30	> 30	> 30	> 30	> 30	> 30	> 30	> 30	> 30	> 30
CCCCC(CC)CN1CN(CC(CC)CCCC)CC(C)(N)C1 (configuration not stated) [HEXETIDINE]	> 30	7.93	> 30	> 30	3.18	> 30	> 30	> 30	4.86	9.85	> 30
C=CC(=O)Nc1cccc(Oc2nc(Nc3ccc(N4CCN(C)CC4)cc3)nc3ccsc23)c1 [OLMUTINIB]	> 30	12.3	> 30	> 30	1.64	> 30	> 30	3.19	5.5	2.29	3.81
COc1c2occc2c(OC)c2c(=O)cc(C)oc12 [KHELLIN]	> 30	> 30	> 30	> 30	> 30	> 30	> 30	2.85	> 30	> 30	> 30
C=C(C)CNc1ccc(C(C)C(=O)O)cc1 (configuration not stated) [ALMINOPROFEN]	> 30	> 30	> 30	> 30	> 30	> 30	> 30	> 30	> 30	> 30	> 30
C[N+](C)(CCCCCC[N+](C)(C)C1c2ccccc2-c2ccccc21)C1c2ccccc2-c2ccccc21 [HEXAFLUORENIUM]	> 30	1.44	> 30	0.171	0.514	> 30	> 30	> 30	1.03	7.41	19.3
CCCCc1oc2ccc(NS(C)(=O)=O)cc2c1C(=O)c1ccc(OCCCN(CCCC)CCCC)cc1 [DRONEDARONE]	> 30	3.98	> 30	> 30	2.39	> 30	> 30	16.8	3.09	7.76	5.4
CC(C)C(=O)Oc1ccc(CO)cc1[C@H](CCN(C(C)C)C(C)C)c1ccccc1 [FESOTERODINE]	> 30	> 30	> 30	> 30	0.414	> 30	> 30	> 30	> 30	0.354	> 30
CC[C@H]1OC(=O)[C@H](C)[C@@H](O[C@H]2C[C@@](C)(OC)[C@@H](O)[C@H](C)O2)[C@H](C)[C@@H](O[C@@H]2O[C@H](C)C[C@H](N(C)C)[C@H]2O)[C@](C)(O)C[C@@H](C)[C@@H]2N[C@@H](COCCOC)O[C@H]([C@H]2C)[C@]1(C)O [DIRITHROMYCIN]	> 30	> 30	> 30	> 30	> 30	> 30	9.63	> 30	> 30	> 30	> 30
CCNC(=O)/C=C(C)/C=C/C=C(C)/C=C/c1c(C)cc(OC)c(C)c1C [MOTRETINIDE]	> 30	24.1	> 30	> 30	> 30	> 30	6.95	> 30	28.4	16.6	> 30
Cc1ccccc1C(=O)Nc1ccc(C(=O)N2CCCC(O)c3cc(Cl)ccc32)c(C)c1 (configuration not stated) [TOLVAPTAN]	> 30	> 30	> 30	> 30	> 30	> 30	> 30	> 30	6.71	11.3	> 30
